Experimental data from BindingDB's records for doi:10.1016/j.ejmech.2017.04.043 (University of Illinois At Chicago, 2017).

Biological target: T1, Gamma-aminobutyric acid receptor subunit alpha-1/beta-2/gamma-2 (Homo sapiens, UniProt P14867+P18507+P47870)
T1 sequence (P14867 whole entry): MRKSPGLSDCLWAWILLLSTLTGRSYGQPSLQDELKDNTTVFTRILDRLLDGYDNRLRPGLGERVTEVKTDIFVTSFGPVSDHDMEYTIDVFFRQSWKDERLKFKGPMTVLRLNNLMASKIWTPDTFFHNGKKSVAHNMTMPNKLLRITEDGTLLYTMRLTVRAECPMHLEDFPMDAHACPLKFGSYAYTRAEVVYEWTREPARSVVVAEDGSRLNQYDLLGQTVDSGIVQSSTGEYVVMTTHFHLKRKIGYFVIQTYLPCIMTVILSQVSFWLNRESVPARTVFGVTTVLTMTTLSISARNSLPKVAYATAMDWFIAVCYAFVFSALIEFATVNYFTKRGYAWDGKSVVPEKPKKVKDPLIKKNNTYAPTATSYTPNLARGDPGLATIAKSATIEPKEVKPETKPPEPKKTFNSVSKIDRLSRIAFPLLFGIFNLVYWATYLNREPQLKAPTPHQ
T1 sequence (P18507 whole entry): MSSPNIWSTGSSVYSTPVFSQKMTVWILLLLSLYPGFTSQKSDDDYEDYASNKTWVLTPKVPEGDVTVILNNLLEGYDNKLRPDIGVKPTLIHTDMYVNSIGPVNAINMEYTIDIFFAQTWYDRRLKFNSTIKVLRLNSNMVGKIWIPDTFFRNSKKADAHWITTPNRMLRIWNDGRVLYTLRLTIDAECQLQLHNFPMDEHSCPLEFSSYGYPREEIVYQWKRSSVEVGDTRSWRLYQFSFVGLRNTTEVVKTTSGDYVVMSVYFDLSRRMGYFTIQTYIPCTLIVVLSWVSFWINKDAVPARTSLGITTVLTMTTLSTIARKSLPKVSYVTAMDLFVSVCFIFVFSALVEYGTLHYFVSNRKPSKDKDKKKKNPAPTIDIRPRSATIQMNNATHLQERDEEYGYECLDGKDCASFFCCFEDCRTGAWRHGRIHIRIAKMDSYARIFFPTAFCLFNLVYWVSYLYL
T1 sequence (P47870 whole entry): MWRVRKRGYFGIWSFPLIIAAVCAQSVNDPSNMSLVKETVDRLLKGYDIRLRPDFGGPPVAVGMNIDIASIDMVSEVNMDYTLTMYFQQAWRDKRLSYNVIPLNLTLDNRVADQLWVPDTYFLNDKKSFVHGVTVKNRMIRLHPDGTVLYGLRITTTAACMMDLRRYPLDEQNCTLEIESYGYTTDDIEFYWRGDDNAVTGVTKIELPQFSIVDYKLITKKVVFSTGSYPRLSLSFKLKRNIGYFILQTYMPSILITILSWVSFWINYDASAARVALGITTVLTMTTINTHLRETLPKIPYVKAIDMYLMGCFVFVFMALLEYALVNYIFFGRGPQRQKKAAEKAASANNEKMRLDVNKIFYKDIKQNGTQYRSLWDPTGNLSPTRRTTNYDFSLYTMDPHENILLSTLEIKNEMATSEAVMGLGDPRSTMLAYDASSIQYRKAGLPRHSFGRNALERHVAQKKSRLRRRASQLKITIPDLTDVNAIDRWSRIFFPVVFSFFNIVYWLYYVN
Experiment: Positive allosteric modulation of human GABAA receptor alpha1beta2gamma2L expressed in Xenopus laevis oocytes assessed as potentiation of GABA-induced current by measuring GABA EC50 at 1.4 uM incubated for 15 to 25 secs by two-electrode voltage clamp assay (Rvb = […])

Row | Structure (SMILES) | EC50 [nM]
1 | CC(=O)[C@H]1CC[C@H]2[C@@H]3CC[C@H]4C[C@H](O)CC[C@]4(C)[C@H]3C3(C[C@]12C)N=N3 | 1230
2 | CC(=O)[C@H]1CC[C@H]2[C@@H]3CC[C@H]4C[C@H](O)CC[C@]4(C)[C@H]3[C@@H](OC(=O)c3c(F)c(F)c(N=[N+]=[N-])c(F)c3F)C[C@]12C | 70
